Reference: ChEMBL document CHEMBL2440076, “New triarylpyrazoles as broad-spectrum anticancer agents: design, synthesis, and biological evaluation” (Eur J Med Chem, 2013)

How the values were obtained:
Assay type in all cases: functional
A549 = assay: Growth inhibition of human A549/ATCC cells assessed as cell growth at 5X10'-7 M after 48 hrs by sulforhodamine B assay; settings: A549, 48 h, read-out: Activity
BT-549 [1] = assay: Growth inhibition of human BT549 cells assessed as cell growth at 5X10'-8 M after 48 hrs by sulforhodamine B assay; settings: BT-549, 48 h, read-out: Activity
MDA-MB-435 = assay: Growth inhibition of human MDA-MB-435 cells assessed as cell growth at 5X10'-8 M after 48 hrs by sulforhodamine B assay; settings: MDA-MB-435, 48 h, read-out: Activity
M14 = assay: Growth inhibition of human M14 cells assessed as cell growth at 5X10'-8 M after 48 hrs by sulforhodamine B assay; settings: M14, 48 h, read-out: Activity
[2] = Growth inhibition of human NCI-ADR-RES cells assessed as cell growth at 5X10'-8 M after 48 hrs by sulforhodamine B assay; settings: read-out: Activity
LOX IMVI = assay: Growth inhibition of human LOXIMVI cells assessed as cell growth at 5X10'-9 M after 48 hrs by sulforhodamine B assay; settings: read-out: Activity
SNB-19 [3] = assay: Growth inhibition of human SNB19 cells assessed as cell growth at 5X10'-7 M after 48 hrs by sulforhodamine B assay; settings: SNB-19, 48 h, read-out: Activity
[4] = Growth inhibition of human Hs 578T cells assessed as cell growth at 5X10'-7 M after 48 hrs by sulforhodamine B assay; settings: read-out: Activity
MOLT-4 = assay: Growth inhibition of human MOLT4 cells assessed as cell growth at 5X10'-9 M after 48 hrs by sulforhodamine B assay; settings: MOLT-4, 48 h, read-out: Activity
UACC-62 = assay: Growth inhibition of human UACC62 cells assessed as cell growth at 5X10'-7 M after 48 hrs by sulforhodamine B assay; settings: UACC-62, 48 h, read-out: Activity
SK-MEL-2 = assay: Growth inhibition of human SK-MEL-2 cells assessed as cell growth at 5X10'-8 M after 48 hrs by sulforhodamine B assay; settings: SK-MEL-2, 48 h, read-out: Activity
MDA-MB-231 = assay: Growth inhibition of human MDA-MB-231 cells assessed as cell growth at 5X10'-7 M after 48 hrs by sulforhodamine B assay; settings: MDA-MB-231, 48 h, read-out: Activity
SNB-19 [5] = assay: Growth inhibition of human SNB19 cells assessed as cell growth at 5X10'-9 M after 48 hrs by sulforhodamine B assay; settings: SNB-19, 48 h, read-out: Activity
T47D [6] = assay: Growth inhibition of human T47D cells assessed as cell growth at 5X10'-8 M after 48 hrs by sulforhodamine B assay; settings: read-out: Activity
SW-620 [7] = assay: Growth inhibition of human SW620 cells assessed as cell growth at 5X10'-6 M after 48 hrs by sulforhodamine B assay; settings: SW-620, 48 h, read-out: Activity
HOP-62 = assay: Growth inhibition of human HOP62 cells assessed as cell growth at 5X10'-5 M after 48 hrs by sulforhodamine B assay; settings: HOP-62, 48 h, read-out: Activity
NCI-H522 = assay: Growth inhibition of human NCI-H522 cells assessed as cell growth at 5X10'-7 M after 48 hrs by sulforhodamine B assay; settings: NCI-H522, 48 h, read-out: Activity
T47D [8] = assay: Growth inhibition of human T47D cells assessed as cell growth at 5X10'-7 M after 48 hrs by sulforhodamine B assay; settings: read-out: Activity
CCRF-CEM = assay: Growth inhibition of human CCRF-CEM cells assessed as cell growth at 5X10'-6 M after 48 hrs by sulforhodamine B assay; settings: read-out: Activity
NCI-H322M = assay: Growth inhibition of human NCI-H322M cells assessed as cell growth at 5X10'-8 M after 48 hrs by sulforhodamine B assay; settings: read-out: Activity
SW-620 [9] = assay: Growth inhibition of human SW620 cells assessed as cell growth at 5X10'-7 M after 48 hrs by sulforhodamine B assay; settings: SW-620, 48 h, read-out: Activity
RPMI-8226 = assay: Growth inhibition of human RPMI8226 cells assessed as cell growth at 5X10'-8 M after 48 hrs by sulforhodamine B assay; settings: RPMI-8226, 48 h, read-out: Activity
BT-549 [10] = assay: Growth inhibition of human BT549 cells assessed as cell growth at 5X10'-6 M after 48 hrs by sulforhodamine B assay; settings: BT-549, 48 h, read-out: Activity
SF-539 = assay: Growth inhibition of human SF539 cells assessed as cell growth at 5X10'-6 M after 48 hrs by sulforhodamine B assay; settings: SF-539, 48 h, read-out: Activity
SK-MEL-28 = assay: Growth inhibition of human SK-MEL-28 cells assessed as cell growth at 5X10'-8 M after 48 hrs by sulforhodamine B assay; settings: SK-MEL-28, 48 h, read-out: Activity
SK-MEL-5 = assay: Growth inhibition of human SK-MEL-5 cells assessed as cell growth at 5X10'-6 M after 48 hrs by sulforhodamine B assay; settings: SK-MEL-5, 48 h, read-out: Activity
TK-10 = assay: Growth inhibition of human TK10 cells assessed as cell growth at 5X10'-5 M after 48 hrs by sulforhodamine B assay; settings: TK-10, 48 h, read-out: Activity
HT-29 [11] = assay: Growth inhibition of human HT-29 cells assessed as cell growth at 5X10'-5 M after 48 hrs by sulforhodamine B assay; settings: HT-29, 48 h, read-out: Activity
HT-29 [12] = assay: Growth inhibition of human HT-29 cells assessed as cell growth at 5X10'-8 M after 48 hrs by sulforhodamine B assay; settings: HT-29, 48 h, read-out: Activity
[13] = Growth inhibition of human HCC2998 cells assessed as cell growth at 5X10'-7 M after 48 hrs by sulforhodamine B assay; settings: HCC 2998, 48 h, read-out: Activity
UACC-257 = assay: Growth inhibition of human UACC257 cells assessed as cell growth at 5X10'-6 M after 48 hrs by sulforhodamine B assay; settings: UACC-257, 48 h, read-out: Activity
OVCAR-3 [14] = assay: Growth inhibition of human OVCAR3 cells assessed as cell growth at 5X10'-5 M after 48 hrs by sulforhodamine B assay; settings: OVCAR-3, 48 h, read-out: Activity
SF-268 = assay: Growth inhibition of human SF268 cells assessed as cell growth at 5X10'-8 M after 48 hrs by sulforhodamine B assay; settings: SF-268, 48 h, read-out: Activity
OVCAR-3 [15] = assay: Growth inhibition of human OVCAR3 cells assessed as cell growth at 5X10'-6 M after 48 hrs by sulforhodamine B assay; settings: OVCAR-3, 48 h, read-out: Activity
[16] = Growth inhibition of human HCC2998 cells assessed as cell growth at 5X10'-9 M after 48 hrs by sulforhodamine B assay; settings: HCC 2998, 48 h, read-out: Activity
SF-295 = assay: Growth inhibition of human SF295 cells assessed as cell growth at 5X10'-6 M after 48 hrs by sulforhodamine B assay; settings: SF-295, 48 h, read-out: Activity

Structure (SMILES)	growth at 0.5 µM (A549) [%]	growth at 0.05 µM (BT-549 [1]) [%]	growth at 0.05 µM (MDA-MB-435) [%]	growth at 0.05 µM (M14) [%]	growth at 0.05 µM [2] [%]	growth at 0.005 µM (LOX IMVI) [%]	growth at 0.5 µM (SNB-19 [3]) [%]	growth at 0.5 µM [4] [%]	growth at 0.005 µM (MOLT-4) [%]	growth at 0.5 µM (UACC-62) [%]	growth at 0.05 µM (SK-MEL-2) [%]	growth at 0.5 µM (MDA-MB-231) [%]	growth at 0.005 µM (SNB-19 [5]) [%]	growth at 0.05 µM (T47D [6]) [%]	growth at 5 µM (SW-620 [7]) [%]	growth at 50 µM (HOP-62) [%]	growth at 0.5 µM (NCI-H522) [%]	growth at 0.5 µM (T47D [8]) [%]	growth at 5 µM (CCRF-CEM) [%]	growth at 0.05 µM (NCI-H322M) [%]	other results
COc1cc(-c2nn(-c3cccc(NC(=O)Nc4cccc(C(F)(F)F)c4)c3)cc2-c2ccncc2)ccc1Cl	62	96	97	97	97	95	74	80	94	74	98	73	96	98	5	-32	65	85	-1	92	growth at 0.5 µM (SW-620 [9]): 79%; growth at 0.05 µM (RPMI-8226): 97%; growth at 5 µM (BT-549 [10]): -12%; growth at 5 µM (SF-539): -36%; growth at 0.05 µM (SK-MEL-28): 100%; growth at 5 µM (SK-MEL-5): -97%; growth at 50 µM (TK-10): -7%; growth at 50 µM (HT-29 [11]): -79%; growth at 0.05 µM (HT-29 [12]): 99%; growth at 0.5 µM [13]: 94%; growth at 5 µM (UACC-257): -42%; growth at 50 µM (OVCAR-3 [14]): -54%; growth at 0.05 µM (SF-268): 93%; growth at 5 µM (OVCAR-3 [15]): -42%; growth at 0.005 µM [16]: 100%; growth at 5 µM (SF-295): -71%
COc1cc(-c2nn(-c3cccc(NC(=O)Nc4cc(C(F)(F)F)cc(C(F)(F)F)c4)c3)cc2-c2ccncc2)ccc1Cl	52	102	98	107	106	101	61	79	104	66	115	69	95	104	-51	-95	60	89	-17	103	growth at 0.5 µM (SW-620 [9]): 69%; growth at 0.05 µM (RPMI-8226): 95%; growth at 5 µM (BT-549 [10]): -27%; growth at 5 µM (SF-539): -74%; growth at 0.05 µM (SK-MEL-28): 97%; growth at 5 µM (SK-MEL-5): -96%; growth at 50 µM (TK-10): -86%; growth at 50 µM (HT-29 [11]): -77%; growth at 0.05 µM (HT-29 [12]): 108%; growth at 0.5 µM [13]: 95%; growth at 5 µM (UACC-257): -40%; growth at 50 µM (OVCAR-3 [14]): -78%; growth at 0.05 µM (SF-268): 105%; growth at 5 µM (OVCAR-3 [15]): -69%; growth at 0.005 µM [16]: 102%; growth at 5 µM (SF-295): -71%
